Laboratory results reported in patent publication US8609609B2, “Peptides and methods of use as therapeutics and screening agents” (North Carolina State University, priority 2008, dated 2013).
No end group written: not given here.

Key:
unmodified ASL^LYS3 = experiment: Fluorescence titration of fluorescein-conjugated peptides with unmodified ASL^LYS3; format: binding; conditions: fluorescein-conjugated peptide titrated with unmodified ASL^LYS3
Source text: (§1) The sequences of the target ASLLys3 and that of control ASLs are shown. Peptides were selected against the ASLLys3 and tested against all three. The ASL^LYS3 contains the natural modified nucleosides, 5-methoxycarbonylmethyl-2-thiouridine-34 (mcm5s2U34), 2-methylthio-N6-threonylcarbamoyladenosine-37 (ms2t6A37), and pseudouridine-39 (Ψ39).
(§2) Peptides were selected by phage display methods to bind to the modified ASL^LYS3. Control peptides were selected for their lack of recognition. Each peptide is synthesized with a conjugated fluorescein as a reporter. Here control peptide #21 is titrated with the three ASLs and the fluorescence is monitored.
Peptides #6 and #17 were selected by phage display methods to bind to the modified ASL^LYS3. These peptides along with control peptide #21 were synthesized with a conjugated fluorescein as a reporter. Here the three peptides are titrated with the unmodified ASL^LYS3 and the fluorescence is monitored.

[1] = tested on: fully modified human tRNA^LYS3 anticodon stem and loop domain (modified ASL^LYS3); experiment: Fluorescence titration of fluorescein-conjugated peptides with modified ASL^LYS3; format: binding; conditions: for binding to the modified ASL^LYS3 (fluorescence monitored): fluorescein-conjugated peptide titrated with modified ASL^LYS3; for specific recognition of the modifications of the ASLLys3: comparison of titration with modified and with unmodified ASL^LYS3
Source text: as §1, §2
Peptides #6 and #17 were selected by phage display methods to bind to the modified ASL^LYS3. These peptides along with control peptide #21 were synthesized with a conjugated fluorescein as a reporter. Here the three peptides are titrated with the modified ASLLys3 and the fluorescence is monitored.

[2] = tested on: EIAV infected feline (FEA) cells; experiment: Toxicity by staining in EIAV infected feline (FEA) cells shear-loaded with peptide; format: cell-based
Description: (§3) EIAV is a lentivirus as is HIV, and as such utilizes the host cell tRNA^LYS3 for priming reverse transcription. EIAV infected feline (FEA) cells are “shear-loaded” with three concentrations (5, 10, 35) of peptide #6 that binds the modified ASL^LYS3 portion of HIV primer. Cells are sham loaded with phosphate buffered saline (PBS). The effect of the peptide on reverse transcriptase activity and on toxicity are determined after 1, 2 and 3 days.

Feline (FEA) cells = experiment: Shear-loading of feline (FEA) cells with fluorescein-conjugated peptide: fluorescence microscopy and toxicity staining; format: cell-based; conditions: after 1, 2 and 3 days, at the concentrations used for loading
Source text: Feline (FEA) cells are “shear-loaded” with the peptide #6 that binds the modified ASLLys3. Fluorescein-conjugated, peptide #6 is located with fluorescence microscopy First row: Sham loaded cells. Second row: Peptide loaded. Third row: Peptide loaded at 40× magnification.

[3] = tested on: equine infectious anemia virus (EIAV); experiment: Reverse transcriptase activity in EIAV infected feline (FEA) cells shear-loaded with peptide; format: cell-based
Description: as §3

Q: How did the “binding to the unmodified ASL^LYS3 (fluorescence monitored)” value (unmodified ASL^LYS3) turn out when “NGPECNAYMVRCRGYH (cysteine pairing not given here; also: fluorescein label, position not given here) [compound 17]” was run?
A: do not exhibit binding

Q: And the “binding to the modified ASL^LYS3 (fluorescence monitored)” value [1]?
A: bind

Q: For “PKAFQYGGRAVGGLW (hASL LYS3 binding peptide) [compound 7]”, which “specific recognition of the modifications of the ASLLys3” value [1] is on record?
A: specifically recognizing the modifications

Q: For “PAVASTSSLIIDGPF (also: fluorescein label, position not given here) [peptide #6]”, which “binding to the unmodified ASL^LYS3 (fluorescence monitored)” value (unmodified ASL^LYS3) is on record?
A: do not exhibit binding

Q: And the “toxicity (staining of the cells)” value ([2]; high concentration)?
A: only slightly toxic

Q: And the “toxicity (staining of the cells)” value ([2]; low and middle concentrations)?
A: not toxic

Q: And the “toxicity, determined by staining” value (Feline (FEA) cells)?
A: not toxic

Q: And the “specific recognition of the modifications of the ASLLys3” value [1]?
A: specifically recognizing the modifications

Q: What about the “binding to the modified ASL^LYS3 (fluorescence monitored)” value [1] of the same sequence?
A: bind

Q: And the reverse transcriptase activity ([3]; EIAV infected FEA cells loaded with fluorescein-conjugated peptide, three concentrations (5, 10, 35), versus PBS sham loaded)?
A: significantly reduced

Q: And the “bioactivity in cells against reverse transcription” value ([3]; EIAV infected FEA cells, at days 2 and 3)?
A: significant bioactivity
